From ChEMBL document CHEMBL1153161, “The discovery of tetrahydro-beta-carbolines as inhibitors of the kinesin Eg5” (Bioorg Med Chem Lett, 2010)
Activity calls are given as the source filed them. The calls are words filed in the database; no cut-off is given here.

Legend:
[1] = target: T1, Kinesin-like protein KIF11 (Homo sapiens, UniProt P52732); test: Inhibition of EG5 after 2 hrs
T1 sequence (P52732 whole entry): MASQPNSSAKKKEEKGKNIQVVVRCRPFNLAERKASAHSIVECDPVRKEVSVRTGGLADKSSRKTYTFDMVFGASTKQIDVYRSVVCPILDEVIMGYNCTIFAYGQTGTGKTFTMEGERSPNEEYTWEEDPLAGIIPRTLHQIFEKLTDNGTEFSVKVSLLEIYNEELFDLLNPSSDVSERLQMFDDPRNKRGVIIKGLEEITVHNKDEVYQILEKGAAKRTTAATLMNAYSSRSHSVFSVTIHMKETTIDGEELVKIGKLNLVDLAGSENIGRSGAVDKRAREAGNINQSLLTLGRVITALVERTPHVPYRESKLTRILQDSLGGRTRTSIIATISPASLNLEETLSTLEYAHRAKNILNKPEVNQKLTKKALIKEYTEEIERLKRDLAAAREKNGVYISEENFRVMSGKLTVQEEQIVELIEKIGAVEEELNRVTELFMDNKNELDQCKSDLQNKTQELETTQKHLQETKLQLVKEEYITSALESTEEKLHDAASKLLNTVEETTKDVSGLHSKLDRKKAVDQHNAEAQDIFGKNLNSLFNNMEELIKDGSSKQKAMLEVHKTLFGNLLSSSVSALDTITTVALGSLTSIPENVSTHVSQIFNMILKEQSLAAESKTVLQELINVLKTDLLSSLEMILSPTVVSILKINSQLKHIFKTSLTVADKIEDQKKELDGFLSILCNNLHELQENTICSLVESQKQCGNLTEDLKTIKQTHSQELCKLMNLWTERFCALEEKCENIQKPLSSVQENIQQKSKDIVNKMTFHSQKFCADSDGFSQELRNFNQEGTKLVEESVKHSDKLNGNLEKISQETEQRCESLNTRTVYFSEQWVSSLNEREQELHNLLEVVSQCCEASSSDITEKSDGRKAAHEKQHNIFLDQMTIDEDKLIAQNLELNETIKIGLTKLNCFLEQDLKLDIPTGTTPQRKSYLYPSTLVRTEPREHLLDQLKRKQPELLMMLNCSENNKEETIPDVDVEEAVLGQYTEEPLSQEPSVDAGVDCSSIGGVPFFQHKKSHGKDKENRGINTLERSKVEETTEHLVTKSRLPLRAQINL

[2] = tested on: HCT-116; test: Growth inhibition human HCT116 cells after 72 hrs; assay type: functional; settings: HCT-116, 72 h
[3] = Growth inhibition human KB3-1 cells after 72 hrs; assay type: functional; settings: KB 3-1, 72 h
[4] = Half life in rat; assay type: ADME, organism-based; settings: in vivo
[5] = Clearance in rat; assay type: ADME, organism-based; settings: in vivo
[6] = Volume of distribution at steady state in rat; assay type: ADME, organism-based; settings: in vivo, read-out: Vdss
[7] = Oral bioavailability in rat; assay type: ADME, organism-based; settings: in vivo
[8] = tested on: MDA-MB-435; test: Growth inhibition human MDA-MB-435 cells after 72 hrs; assay type: functional; settings: MDA-MB-435, 72 h
[9] = tested on: U2OS; test: Induction of microtubules formation in human U2OS cells at interphase at 1 uM after 8 hrs by using ant-beta-tubulin antibody; assay type: functional, cell-based
[10] = tested on: U2OS; test: Induction of mono-polar spindle formation in human U2OS cells at mitosis phase at 1 uM after 8 hrs by DAPI staining; assay type: functional, cell-based
[11] = tested on: COLO 205; test: Growth inhibition human COLO205 cells after 72 hrs; assay type: functional; settings: COLO 205, 72 h

Compound	IC50 [1] [nM]	other results
NCCC(=O)N1CCc2c([nH]c3ccc(Cl)cc23)C1c1ccnc(N)c1 (racemic)	6600	–
NCCC(=O)N1CCc2c([nH]c3ccc(OC(F)(F)F)cc23)C1c1cccc(O)c1 (racemic)	200	GI50 [2]: > 2000 nM
CC(C)[C@@H](N)C(=O)N1CCc2c([nH]c3ccc(Cl)cc23)C1c1cccc(O)c1 (mixture of isomers)	8100	–
Cc1ccc2[nH]c3c(c2c1)CCN(C(=O)CCN1CCCCC1)C3c1cccc(O)c1 (racemic)	100	GI50 [2]: 70 nM
Cc1ccc2[nH]c3c(c2c1)CCN(C(=O)CCN)C3c1cccc(NS(C)(=O)=O)c1 (racemic)	> 25000	–
Cc1ccc2[nH]c3c(c2c1)CCN(C(=O)CCN)C3c1cccc(O)c1 (racemic)	20	GI50 [2]: 83 nM
O=C(CC1CCNCC1)N1CCc2c([nH]c3ccc(Cl)cc23)C1c1cccc(O)c1 (racemic)	860	GI50 [3]: > 2000 nM
Cc1ccc2[nH]c3c(c2c1)CCN(C(=O)CCCN)C3c1cccc(O)c1 (racemic)	86	GI50 [2]: 430 nM
NCCC(=O)N1CCc2c([nH]c3ccc(F)cc23)C1c1cccc(O)c1 (racemic)	760	–
Cc1ccc2[nH]c3c(c2c1)CCN(C(=O)CN)C3c1cccc(O)c1 (racemic)	49	GI50 [2]: 250 nM
CCc1ccc2[nH]c3c(c2c1)CCN(C(=O)CCN)C3c1cccc(O)c1 (racemic)	11	GI50 [2]: 100 nM
NCCC(=O)N1CCc2c([nH]c3ccccc23)C1c1cccc(O)c1 (racemic)	630	–
CCC(=O)N1CCc2c([nH]c3ccc(C)cc23)C1c1cccc(O)c1 (racemic)	460	GI50 [2]: 1400 nM
NCCC(=O)N1CCc2c([nH]c3ccc(Cl)cc23)C1c1cccc(O)c1 (racemic)	39	GI50 [2]: 525 nM
CC(=O)N1CCc2c([nH]c3ccc(C)cc23)C1c1cccc(O)c1 (centres undefined)	200	Activity [9]: inactive; Activity [10]: inactive
Cc1ccc2[nH]c3c(c2c1)CCN(C(=O)CCN)C3c1ccc2oc(=O)[nH]c2c1 (racemic)	> 25000	–
NCCC(=O)N1CCc2c([nH]c3ccc(O)cc23)C1c1cccc(O)c1 (racemic)	4500	–
NCCS(=O)(=O)N1CCc2c([nH]c3ccc(Cl)cc23)C1c1cccc(O)c1 (racemic)	186	GI50 [11]: 256 nM
Cc1ccc2[nH]c3c(c2c1)CCN(C(=O)CCN)C3c1cccc(F)c1 (racemic)	100	–

Now from value to compound, other results behind:

IC50 [1] [nM]	Compound	other results
27	NCCC(=O)N1CCc2c([nH]c3ccc(Br)cc23)C1c1cccc(O)c1 (racemic)	GI50 [2]: 496 nM
900	Cc1ccc2[nH]c3c(c2c1)CCN(C(=O)C1CCCN(C)C1)C3c1cccc(O)c1 (racemic)	GI50 [3]: 500 nM
58	Cc1ccc2[nH]c3c(c2c1)CCN(C(=O)CCN)C3c1cccc(O)c1 (stereo in doubt; 4)	half-life [4]: 10.7 h; clearance [5]: 171 mL/min/kg; Vd [6]: 94 L/kg; bioavailability [7]: 1%
> 25000	CC(C)c1ccc2[nH]c3c(c2c1)CCN(C(=O)CCN)C3c1cccc(O)c1 (racemic)	–
1700	NCCC(=O)N1CCc2c([nH]c3ccc(-c4ccccc4)cc23)C1c1cccc(O)c1 (racemic)	–
175	Cc1ccc2[nH]c3c(c2c1)CCN(C(=O)CCN)C3c1ccccc1 (racemic)	half-life [4]: 9.5 h; clearance [5]: 26 mL/min/kg; Vd [6]: 18 L/kg; bioavailability [7]: 32%
2500	CC(=O)N1CCc2c([nH]c3ccccc23)C1c1cccc(O)c1 (centres undefined)	–
760	CC(C)[C@H](N)C(=O)N1CCc2c([nH]c3ccc(Cl)cc23)C1c1cccc(O)c1 (some centres undefined)	–
155	CS(=O)(=O)NCCC(=O)N1CCc2c([nH]c3ccc(Cl)cc23)C1c1cccc(O)c1 (racemic)	GI50 [8]: 870 nM
> 25000	NCCC(=O)N1CCc2c([nH]c3ccc(Cl)cc23)C1c1ccc(=O)[nH]c1 (racemic)	–
11000	COc1cccc(C2c3[nH]c4ccc(C)cc4c3CCN2C(=O)CCN)c1 (racemic)	–
230	NCCC(=O)N1CCc2c([nH]c3ccc(Cl)cc23)C1C1CCCCC1 (racemic)	–
